We go through 19 compounds from patent US11401264B2, “Heterocyclic compound” (Orizuru Therapeutics, Inc., priority 2018, dated 2022).

The assay relates to cardiomyocytes from double knock-in human iPS cell lines (mCherry at TNNI3 locus). Kind of assay: Experimental Example 1: mCherry (TNNI3 reporter) immunostaining measured by high contents screening. It counts as cell-based. Set-up: key to average fluorescent intensity (at 30 μM): —: The symbol in Table 2 means that the average fluorescent intensity cannot be evaluated due to cell decrease. To be noted: read on 8th day, Alexa 647 anti-mCherry, control well 797; for average fluorescent intensity (at 1 μM): test compound 1 μM added on 3rd and 6th culture days; for average fluorescent intensity (at 30 μM): test compound 30 μM added on 3rd and 6th culture days. Here is the method: For detection of cardiomyocyte maturation, double knock-in human iPS cell lines, in which reporter protein sequences, EmGFP (Sequence Number 1) and mCherry (Sequence Number 2) were inserted into gene loci for TNNI1 and TNNI3, respectively, were prepared (the human iPS cells were prepared from episomal vector (loaded gene; OCT3/4, KLF4, SOX2, L-MYC, LIN28, mouse p53DD) using PBMC (LP_167, Sample ID: 20130318) purchased from CTL (reference literature; Okita K, et al. Stem Cells. 2012 Nov. 29. doi: 10.1002/stem.1293)).
The maintenance culture of the above-mentioned reporter iPS cell lines was carried out by a conventional method (Okita K, et al. Stem Cells. 2012 Nov. 29. doi: 10.1002/stem.1293).
For differentiation induction into cardiomyocytes, the reporter iPS cell lines were treated with 0.5×TrypLE select (Life Technologies, diluted in 1/2 with 0.5 mM EDTA/PBS) for 4 to 5 minutes, and the cells were exfoliated using a cell scraper (IWAKI), and then dissociated into the single cell by pipetting. The medium was removed by centrifugation (1,000 rpm, 5 min), and the obtained cells were seeded on a bioreactor (ABLE) by 1×10^7 cells per 30 mL of the bioreactor, and then cultured in a medium prepared by adding 1% L-glutamine, transferrin 150 μg/mL, ascorbic acid 50 μg/mL (Sigma), monothioglycerol 4×10^−4 M, 10 μM Rock inhibitor (Y-27632), 2 ng/mL BMP4 (R&D) and 0.5% Matrigel (Growth Factor Reduced) to a medium after removal of solution C from StemFit AK02 (AJINOMOTO AK02, 400 mL of solution A and 100 mL of B solution, total 500 mL), at 37° C., under 5% oxygen condition (55 rpm, stirred suspension culture method) to form embryoid bodies (0 day).
Next day (1st day), 9 μL (final concentration 3 ng/mL) of 10 μg/mL activin A, 15 μL (final concentration 5 ng/mL) of 10 μg/mL bFGF and […] (final concentration 10 ng/mL) of 10 μg/mL BMP4 were added to the bioreactor, and the cells were cultured at 37° C. for additional 2 days, under 5% oxygen condition.
Then (3rd day), the obtained embryoid bodies were collected in a 50 mL centrifuge tube, and then subjected to centrifugation (200 g, 1 min). The medium was removed, and the embryoid bodies were cultured in a medium prepared by adding 1% L-glutamine, transferrin 150 μg/mL, ascorbic acid 50 μg/mL (Sigma), monothioglycerol 4×10^−4 M, 10 ng/mL VEGF, 1 μM IWP-3, 0.6 μM dorsomorphin and 5.4 μM SB431542 to a medium after removal of solution C from StemFit AK02 (AJINOMOTO AK02, 400 mL of solution A and 100 mL of B solution, total 500 mL), at 37° C. for 3 days, under 5% oxygen condition (55 rpm, stirred suspension culture method).
Then (6th day), the bioreactor was left to stand to precipitate the embryoid bodies, and 80 to 90% of the medium was removed. A medium prepared by adding 1% L-glutamine, transferrin 150 μg/mL, ascorbic acid 50 μg/mL (Sigma), monothioglycerol […] and 5 ng/mL VEGF to a medium after removal of solution C from StemFit AK02 (AJINOMOTO AK02, 400 mL of solution A and 100 mL of B solution, total 500 mL) was added to the bioreactor so that the total volume became 30 mL, and the embryoid bodies were cultured for 8 days, at 37° C., under 5% oxygen condition (55 rpm, stirred suspension culture method). During the culture, the medium was replaced with a medium under the same conditions every 2 to 3 days.
14th Day after the start of the differentiation induction, the embryoid bodies were treated with 2 mg/mL collagenase type I (Sigma) for 2 hr, and then with 0.25% trypsin/EDTA (Invitrogen) for 10 min. 50% FBS/IMDM (Thermo Fisher Science) was added thereto, and the embryoid bodies were dissociated into the single cell by pipetting, and then subjected to centrifugation (1,000 rpm, 5 minutes). […]

SMILES strings stand for the structures.

`CCCOc1ccc(-c2nc3cc(N4Cc5cc(N6CCOCC6)ccc5C4=O)ccc3[nH]2)cc1` [Example 58, 5-(morpholin-4-yl)-2-(2-(4-propoxyphenyl)-1H-benzimidazol-5-yl)isoindolin-1-one]: the “average fluorescent intensity (at 1 μM)” value was determined as 994 and the “average fluorescent intensity (at 30 μM)” value was determined as 819.

On to `O=C1c2ccc(N3CCOCC3)cc2CN1c1ccc2[nH]c(-c3ccc(O)cc3)nc2c1` [Example 53, 2-(2-(4-hydroxyphenyl)-1H-benzimidazol-5-yl)-5-(morpholin-4-yl)isoindolin-1-one], for which the “average fluorescent intensity (at 1 μM)” value is recorded as 880 and the “average fluorescent intensity (at 30 μM)” value stood at 2812.

Take `CN(C)C(=O)COc1ccc(-c2nc3cc(N4Cc5cc(N6CCOCC6)ccc5C4=O)ccc3[nH]2)cc1` [Example 38, N,N-dimethyl-2-(4-(5-(5-(morpholin-4-yl)-1-oxo-1,3-dihydro-2H-isoindol-2-yl)-1H-benzimidazol-2-yl)phenoxy)acetamide]: the “average fluorescent intensity (at 1 μM)” value is 1633 and the “average fluorescent intensity (at 30 μM)” value is listed as “—”.

On to `CCOc1ccc(-c2nc3cc(N4Cc5cc(N(C)C)ccc5C4=O)ccc3[nH]2)cc1` [Example 61, 5-(dimethylamino)-2-(2-(4-ethoxyphenyl)-1H-benzimidazol-5-yl)isoindolin-1-one], for which the “average fluorescent intensity (at 1 μM)” value is given as 1150.

With `Cc1cccc(NC(=O)COc2ccc(-c3nc4cc(N5Cc6cc(N7CCCCC7)ccc6C5=O)ccc4[nH]3)cc2)c1` [Example 23, N-(3-methylphenyl)-2-(4-(5-(1-oxo-5-(piperidin-1-yl)-1,3-dihydro-2H-isoindol-2-yl)-1H-benzimidazol-2-yl)phenoxy)acetamide], the “average fluorescent intensity (at 1 μM)” value is recorded as 1386.

As to `O=C(COc1ccc(-c2nc3cc(N4Cc5cc(N6CCOCC6)ccc5C4=O)ccc3[nH]2)cc1)NCC1CCOCC1` [Example 30, 2-(4-(5-(5-(morpholin-4-yl)-1-oxo-1,3-dihydro-2H-isoindol-2-yl)-1H-benzimidazol-2-yl)phenoxy)-N-(tetrahydro-2H-pyran-4-ylmethyl)acetamide], the “average fluorescent intensity (at 1 μM)” value worked out at 1005 and the “average fluorescent intensity (at 30 μM)” value amounted to 876.

Regarding `CC(C)(C)OC(=O)N1CCC(c2nc3cc(N4Cc5cc(N6CCCCC6)ccc5C4=O)ccc3[nH]2)CC1` [Example 42, tert-butyl 4-(5-(1-oxo-5-(piperidin-1-yl)-1,3-dihydro-2H-isoindol-2-yl)-1H-benzimidazol-2-yl)piperidine-1-carboxylate], the “average fluorescent intensity (at 1 μM)” value was found to be 980 and the “average fluorescent intensity (at 30 μM)” value came out at 1041.

As for `O=C(COc1ccc(-c2nc3cc(N4Cc5cc(N6CCOCC6)ccc5C4=O)ccc3[nH]2)cc1)N1CCOCC1` [Example 32, 5-(morpholin-4-yl)-2-(2-(4-(2-(morpholin-4-yl)-2-oxoethoxy)phenyl)-1H-benzimidazol-5-yl)isoindolin-1-one], the “average fluorescent intensity (at 1 μM)” value was 1312 and the “average fluorescent intensity (at 30 μM)” value is listed as 1937.

Take `CC(C)Oc1ccc(-c2nc3cc(N4Cc5cc(N6CCCCC6)ccc5C4=O)ccc3[nH]2)cc1` [Example 48, 2-(2-(4-isopropoxyphenyl)-1H-benzimidazol-5-yl)-5-(piperidin-1-yl)isoindolin-1-one]: the “average fluorescent intensity (at 1 μM)” value was found to be 1182 and the “average fluorescent intensity (at 30 μM)” value is 1408.

For `Cc1ccc(NC(=O)COc2ccc(-c3nc4cc(N5Cc6cc(N7CCCCC7)ccc6C5=O)ccc4[nH]3)cc2)cc1` [Example 22, N-(4-methylphenyl)-2-(4-(5-(1-oxo-5-(piperidin-1-yl)-1,3-dihydro-2H-isoindol-2-yl)-1H-benzimidazol-2-yl)phenoxy)acetamide], the “average fluorescent intensity (at 1 μM)” value was found to be 1211 and the “average fluorescent intensity (at 30 μM)” value is on record as “—”.

As for `CCOc1ccc(-c2nc3cc(N4Cc5cc(-n6cccc6)ccc5C4=O)ccc3[nH]2)cc1` [Example 63, 2-(2-(4-ethoxyphenyl)-1H-benzimidazol-5-yl)-5-(1H-pyrrol-1-yl)isoindolin-1-one], the “average fluorescent intensity (at 1 μM)” value amounted to 1194 and the “average fluorescent intensity (at 30 μM)” value is reported as “—”.

As for `O=C(O)COc1ccc(-c2nc3cc(N4Cc5cc(N6CCCCC6)ccc5C4=O)ccc3[nH]2)cc1` [Example 6, (4-(5-(l-oxo-5-(piperidin-1-yl)-1,3-dihydro-2H-isoindol-2-yl)-1H-benzimidazol-2-yl)phenoxy)acetic acid], the “average fluorescent intensity (at 1 μM)” value came out at 974 and the “average fluorescent intensity (at 30 μM)” value was found to be 987.

As for `CC1(NC(=O)COc2ccc(-c3nc4cc(N5Cc6cc(N7CCCCC7)ccc6C5=O)ccc4[nH]3)cc2)CC1` [Example 18, N-(1-methylcyclopropyl)-2-(4-(5-(1-oxo-5-(piperidin-1-yl)-1,3-dihydro-2H-isoindol-2-yl)-1H-benzimidazol-2-yl)phenoxy)acetamide], the “average fluorescent intensity (at 1 μM)” value is 1272 and the “average fluorescent intensity (at 30 μM)” value amounted to 1704.

With `O=C1c2ccc(N3CCOCC3)cc2CN1c1ccc2[nH]c(-c3ccc(Cl)cc3)nc2c1` [Example 56, 2-(2-(4-chlorophenyl)-1H-benzimidazol-5-yl)-5-(morpholin-4-yl)isoindolin-1-one], the “average fluorescent intensity (at 1 μM)” value is 1185 and the “average fluorescent intensity (at 30 μM)” value came to 897.

On to `CN(C(=O)COc1ccc(-c2nc3cc(N4Cc5cc(N6CCCCC6)ccc5C4=O)ccc3[nH]2)cc1)C1CCOCC1` [Example 14, N-methyl-2-(4-(5-(1-oxo-5-(piperidin-1-yl)-1,3-dihydro-2H-isoindol-2-yl)-1H-benzimidazol-2-yl)phenoxy)-N-(tetrahydro-2H-pyran-4-yl)acetamide], for which the “average fluorescent intensity (at 1 μM)” value was 2143 and the “average fluorescent intensity (at 30 μM)” value was found to be 2012.

Regarding `COc1ccc(-c2nc3cc(N4Cc5cc(N6CCOCC6)ccc5C4=O)ccc3[nH]2)cc1` [Example 69, 2-(2-(4-methoxyphenyl)-1H-benzimidazol-5-yl)-5-(morpholin-4-yl)isoindolin-1-one], the “average fluorescent intensity (at 1 μM)” value is 1222 and the “average fluorescent intensity (at 30 μM)” value was determined as 1942.

Take `O=C1c2ccc(N3CCCCC3)cc2CN1c1ccc2[nH]c(-c3ccno3)nc2c1` [Example 40, 2-(2-(1,2-oxazol-5-yl)-1H-benzimidazol-5-yl)-5-(piperidin-1-yl)isoindolin-1-one]: the “average fluorescent intensity (at 1 μM)” value is recorded as 1089 and the “average fluorescent intensity (at 30 μM)” value was determined as 1327.

Take `O=C1c2ccc(N3CCCCC3)cc2CN1c1ccc2[nH]c(C3CCCCC3)nc2c1` [Example 44, 2-(2-cyclohexyl-1H-benzimidazol-5-yl)-5-(piperidin-1-yl)isoindolin-1-one]: the “average fluorescent intensity (at 1 μM)” value is reported as 1071 and the “average fluorescent intensity (at 30 μM)” value was found to be 1141.

With `O=C(COc1ccc(-c2nc3cc(N4Cc5cc(N6CCOCC6)ccc5C4=O)ccc3[nH]2)cc1)Nc1ccncc1` [Example 35, 2-(4-(5-(5-(morpholin-4-yl)-1-oxo-1,3-dihydro-2H-isoindol-2-yl)-1H-benzimidazol-2-yl)phenoxy)-N-(pyridin-4-yl)acetamide], the “average fluorescent intensity (at 1 μM)” value came to 1536 and the “average fluorescent intensity (at 30 μM)” value stood at 1204.
